Assay results taken from PubChem BioAssay (NCI).
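Cells were grown in 96-well plates and exposed to each compound for 48 hours at five concentrations; endpoints were interpolated linearly between bracketing concentrations, or set to the highest concentration if not reached. TGI marks complete inhibition of growth.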

How the values were obtained:
Assay in all cases: DTP human tumour cell line panel, 48 h
[1] = test system: SNB-78 CNS
[2] = test system: DMS 273 small cell lung
[3] = test system: LXFL 529 NSCLC
[4] = test system: DMS 114 small cell lung
[5] = test system: XF 498 CNS
[6] = test system: HOP-18 NSCLC
[7] = test system: KM20L2 colon
[8] = test system: RXF-631 renal
[9] = test system: MDA-N

SMILES	TGI [1]	TGI [2]	TGI [3]	TGI [4]	TGI [5]	TGI [6]	TGI [7]	TGI [8]	TGI [9]
COC(=O)CCC(=O)CC1CC(=O)C2CCCN12 (centres undefined)	> 100 µM	> 100 µM	> 100 µM	> 100 µM	> 100 µM	> 100 µM	> 100 µM		
O=c1[nH]c2cc(Cl)ccc2nc1/C(=N\O)C(O)c1ccc(Cl)cc1Cl (centres undefined)	> 100 µM	> 100 µM	> 100 µM	> 100 µM	> 100 µM		> 100 µM	> 100 µM	
COc1cc2c(cc1O)C1Cc3ccc(OC)c(O)c3C(C2)N1C (centres undefined)									> 100 µM
COc1cccc(-n2c3nc(=O)n(C)c(=O)c-3nc3ccccc32)c1	> 100 µM	30.9 µM	81.8 µM	25.4 µM	42.7 µM	> 100 µM	62.6 µM	76.7 µM	
O=c1[nH]cnc2cccc(Cl)c12									> 100 µM
O=C(Nc1cc(Cl)ccc1Cl)C(=O)C(c1cnc2ccccc2n1)[N+](=O)[O-] (centres undefined)	> 100 µM		> 100 µM	> 100 µM	> 100 µM	> 100 µM	> 100 µM	> 100 µM	
O=C1[C@H]2ON(c3ccccc3)C(c3ccc(Cl)cc3)[C@H]2C(=O)N1c1ccc(Cc2ccc(N3C(=O)[C@@H]4ON(c5ccccc5)C(c5ccc(Cl)cc5)[C@@H]4C3=O)cc2)cc1 (some centres undefined)	> 100 µM	> 100 µM	> 100 µM	> 100 µM		> 100 µM	> 100 µM	> 100 µM	
COC(=O)/C(C#N)=C1\CCC(O)N1 (centres undefined)	> 100 µM	> 100 µM	> 100 µM	> 100 µM	> 100 µM	> 100 µM	> 100 µM		
CN[C@@H](C)[C@H](NC)c1ccccc1	> 100 µM	> 100 µM	> 100 µM	> 100 µM		> 100 µM		> 100 µM	
Cc1cc(C)c(C2[C@H]3C(=O)N(c4ccc(Cc5ccc(N6C(=O)[C@@H]7ON(c8ccccc8)C(c8c(C)cc(C)cc8C)[C@@H]7C6=O)cc5)cc4)C(=O)[C@H]3ON2c2ccccc2)c(C)c1 (some centres undefined)	> 100 µM	> 100 µM	> 100 µM	> 100 µM		> 100 µM	> 100 µM	> 100 µM	
CN(C)C(=S)/N=c1\ss/c(=N\C(=S)N(C)C)n1-c1ccc(Cl)c(Cl)c1	> 100 µM	> 100 µM		> 100 µM			> 100 µM		
C=CCSS/C=C/CS(=O)CC=C (centres undefined)									35.9 µM
O=C1CC2C(=O)N(Cc3ccccc3)C1C=C2S(=O)(=O)c1ccccc1 (centres undefined)	> 100 µM		> 100 µM	> 100 µM	> 100 µM	> 100 µM	> 100 µM		
COc1ccc2[nH]c3c4c(ccc3c2c1)C(=O)C=CC4=O	37.1 µM	32 µM	14.8 µM	27 µM		22.7 µM	43.1 µM		29.7 µM
CC(=O)c1sc(-c2nc(C)c(C(=O)/C=C\c3ccc(/C=C\C(=O)c4sc(-c5nc(C)c(C(C)=O)s5)nc4C)cc3)s2)nc1C	> 100 µM	> 100 µM	> 100 µM	> 100 µM	> 100 µM	> 100 µM	> 100 µM		
CC1CCC(=O)C(C(=O)CC2CC(=O)NC(=O)C2)C1 (centres undefined)									> 100 µM
CC(C)(C=O)CC(C#N)/C(=N\NC(N)=O)C(=O)Nc1ccccc1C(N)=O (centres undefined)	> 100 µM		> 100 µM		> 100 µM		> 100 µM		
C=CCNC(=O)N(CCC)CCCCC(NC(C)=O)C(=O)NCc1ccccc1 (centres undefined)		> 100 µM	> 100 µM	> 100 µM	> 100 µM	> 100 µM	> 100 µM		
COc1ccc2c(c1)[C@@]13CCCC[C@H]1[C@@H](C2)N(C)CC3=O									28.9 µM
Cc1ccc(C2(O)CC(c3ccc([N+](=O)[O-])o3)=NN2C(=O)COc2ccc(Cl)cc2)cc1 (centres undefined)	58.9 µM	> 62.1 µM	10.9 µM	83.8 µM	26.9 µM	> 100 µM	44.1 µM		
N#CC(=NCCO)C1=C(O)c2ccccc2C1=O									> 100 µM
CCOC(=O)c1c[nH]c2oc(/C=N/N3CC(CN4CCOCC4)OC3=O)cc2c1=O (centres undefined)									> 100 µM
